Laboratory results as given in ChEMBL document CHEMBL3045477, “Dysfunctionality of the xylem in Olea europaea L. Plants associated with the infection process by Verticillium dahliae Kleb. Role of phenolic compounds in plant defense mechanism” (J Agric Food Chem, 2007).
Converted amounts (≈) assume the structure as drawn.

System: Verticillium dahliae
Experiment: Antifungal activity against Verticillium dahliae assessed as inhibition of mycelial radial growth measured after 350 hr
Type: functional, organism-based

Structure (SMILES)	IC50 [µg/mL]
O=c1cc(-c2ccc(O)c(O)c2)oc2cc(O)cc(O)c12 [LUTEOLIN]	7 (≈ 24.5 µM)
O=c1c(O)c(-c2ccc(O)c(O)c2)oc2cc(O)cc(O)c12 [QUERCETIN]	6 (≈ 19.9 µM)
Oc1cc(O)c2c(c1)OC(c1ccc(O)c(O)c1)C(O)C2 (stereo not drawn) [CATECHIN]	2100 (≈ 7230 µM)
OCCc1ccc(O)cc1 [TYROSOL]	660 (≈ 4780 µM)
C[C@@H]1O[C@@H](OC[C@H]2O[C@@H](Oc3c(-c4ccc(O)c(O)c4)oc4cc(O)cc(O)c4c3=O)[C@H](O)[C@@H](O)[C@@H]2O)[C@H](O)[C@H](O)[C@H]1O [RUTIN]	80 (≈ 131 µM)
C/C=C1/[C@H](O[C@@H]2O[C@H](CO)[C@@H](O)[C@H](O)[C@H]2O)OC=C(C(=O)OC)[C@H]1CC(=O)OCCc1ccc(O)c(O)c1 [OLEUROPEIN]	170 (≈ 315 µM)
O=C(O)/C=C/c1ccc(O)cc1 [COUMARIC ACID]	1470 (≈ 8950 µM)
O=c1cc(-c2ccc(O)c(O)c2)oc2cc(O[C@@H]3O[C@H](CO)[C@@H](O)[C@H](O)[C@H]3O)cc(O)c12 [GALUTEOLIN]	260 (≈ 580 µM)
